pKi: −log10 of the molar value.
Target: WDR5 (Homo sapiens (Human), UniProt P61964)
Assay: TR-FRET binding assay, displacement of 10mer-Thr-FAM probe from His-tagged WDR5
Conditions: not given
Method: The LanthaScreenTM Elite Tb-anti-HIS Antibody from ThermoFisher Scientific was used for this purpose. […] The ratio of the 520 and 495 signals are then utilized to generate a dose-response curve to calculate an IC50 value. […] WDR[…] tag protein is used at 2 nM.

| Compound | pKi |
| --- | --- |
| Cc1nc(F)ccc1-c1cc(CNC2=NCCN2)cc(C(=O)NCc2ccc(Cl)c(Cl)c2)c1 [Example B64] | 10.67 |
| Cc1cc(-c2cc(CNC3=NCCN3)cc(C(=O)NCc3ccc(Cl)c(Cl)c3)c2)cnc1F [Example B99] | 10.06 |

Same assay, conditions: Inhibition of WDR5 by TR-FRET assay

| Compound | pKi |
| --- | --- |
| COc1cc(OC)cc(C(C)NC(=O)c2cc(CNC3=NC(=O)CN3C)cc(-c3ccc(F)nc3C)c2)c1 (stereo not drawn) [Example 44, N-(1-(3,5-dimethoxyphenyl)ethyl)-3-(6-fluoro-2-methylpyridin-3-yl)-5-(((1-methyl-4-oxo-4,5-dihydro-1H-imidazol-2-yl)amino)methyl)benzamide] | 7.77 |
| Cc1cnc(F)c(-c2cc(CNC3=NCCN3)cc(C(=O)N(C)C)c2)c1 [Example 40, 3-(((4,5-dihydro-1H-imidazol-2-yl)amino)methyl)-5-(2-fluoro-5-methylpyridin-3-yl)-N,N-dimethylbenzamide] | 7.19 |
| Cc1cnc(F)c(-c2cc(CNC3=NCCN3)cc(C(=O)NCc3cc(Cl)ccn3)c2)c1 [Example 38, N-((4-chloropyridin-2-yl)methyl)-3-(((4,5-dihydro-1H-imidazol-2-yl)amino)methyl)-5-(2-fluoro-5-methylpyridin-3-yl)benzamide] | 9.59 |
| Cc1ccc(CNC(=O)c2cc(CNC3=NCCN3)cc(-c3cnccc3C)c2)cn1 [Example 28, 3-(((4,5-Dihydro-1H-imidazol-2-yl)amino)methyl)-5-(4-methylpyridin-3-yl)-N-((6-methylpyridin-3-yl)methyl)benzamide] | 8.12 |
| Cc1cc([C@H](C)NC(=O)c2cc(CNC3=NCCC3)cc(-c3ccc(F)cc3C(F)(F)F)n2)ccc1Cl [Example 92, (S)—N-(1-(4-chloro-3-methylphenyl)ethyl)-4-(((3,4-dihydro-2H-pyrrol-5-yl)amino)methyl)-6-(4-fluoro-2-(trifluoromethyl)phenyl)picolinamide] | 8.82 |
| COc1ccc(CNC(=O)c2cc(CNC3=NCCN3)cc(-c3cnccc3C)c2)cc1Cl [Example 14, N-(3-chloro-4-methoxybenzyl)-3-(((4,5-dihydro-1H-imidazol-2-yl)amino)methyl)-5-(4-methylpyridin-3-yl)benzamide] | 9.13 |
| CCn1cc(-c2cc(CNC(=N)C3(C)CC3)cc(C(=O)N[C@H](c3ccc(F)c(C)c3)C3CC3)c2)c(C(F)(F)F)n1 [Example 109, (S)—N-(Cyclopropyl(4-fluoro-3-methylphenyl)methyl)-3-(1-ethyl-3-(trifluoromethyl)-1H-pyrazol-4-yl)-5-((1-methylcyclopropane-1-carboximidamido)methyl)benzamide] | 9.89 |
| COc1cc(OC)cc(C(C)NC(=O)c2cc(Cn3ccnc3C)cc(-c3cccc(CO)c3)n2)c1 (stereo not drawn) [Example 157, N-(1-(3,5-dimethoxyphenyl)ethyl)-6-(3-(hydroxymethyl)phenyl)-4-((2-methyl-1H-imidazol-1-yl)methyl)picolinamide] | 7.57 |
| Cc1cc(-c2cc(CNC(=N)N)cc(C(=O)NCc3ccc(Cl)cn3)c2)ccn1 [Example 103, N-((5-Chloropyridin-2-yl)methyl)-3-(guanidinomethyl)-5-(2-methylpyridin-4-yl)benzamide] | 8.48 |
| COc1cc(CNC(=O)c2cc(CNC3=NCCC3)cc(-c3ccncc3C)c2)cc(OC)c1 [Example 61, 3-(((3,4-Dihydro-2H-pyrrol-5-yl)amino)methyl)-N-(3,5-dimethoxybenzyl)-5-(3-methylpyridin-4-yl)benzamide] | 8.74 |
| COc1ccnc(CNC(=O)c2cc(CNC3=NCCN3)cc(-c3cc(C)c(F)cc3OC)c2)c1 [Example 50, 5-(((4,5-Dihydro-1H-imidazol-2-yl)amino)methyl)-4′-fluoro-2′-methoxy-N-((4-methoxypyridin-2-yl)methyl)-5′-methyl-[1,1′-biphenyl]-3-carboxamide] | > 10.00 |
| Cc1ccncc1-c1cc(CNC2=NCCN2)cc(C(=O)NCc2ccc(Cl)c(Cl)c2)n1 [Example 81, N-(3,4-Dichlorobenzyl)-4-(((4,5-dihydro-1H-imidazol-2-yl)amino)methyl)-4′-methyl-[2,3′-bipyridine]-6-carboxamide] | 9.62 |
| Cc1ncc(CNC(=O)c2cc(CNC3=NCCN3)cc(-c3ccc(F)nc3C)n2)cn1 [Example 80, 4-(((4,5-Dihydro-1H-imidazol-2-yl)amino)methyl)-6′-fluoro-2′-methyl-N-((2-methylpyrimidin-5-yl)methyl)-[2,3′-bipyridine]-6-carboxamide] | 7.66 |
| COc1ccnc(CNC(=O)c2cc(C)c(OC)c(Cn3ccnc3C)c2)c1 [Example 146, 4-Methoxy-N-((4-methoxypyridin-2-yl)methyl)-3-methyl-5-((2-methyl-1H-imidazol-1-yl)methyl)benzamide] | 6.30 |
| Cc1cccc(Oc2cc(CNC3=NCCN3)cc(C(=O)NCc3ccc(Cl)c(Cl)c3)c2)c1 [Example 32, N-(3,4-Dichlorobenzyl)-3-(((4,5-dihydro-1H-imidazol-2-yl)amino)methyl)-5-(m-tolyloxy)benzamide] | 9.04 |
| CCOc1ncc(C)cc1-c1cc(CNC2=NCCN2)cc(C(=O)NCc2ccc(Cl)c(Cl)c2)n1 [Example 88, N-(3,4-dichlorobenzyl)-4-(((4,5-dihydro-1H-imidazol-2-yl)amino)methyl)-2′-ethoxy-5′-methyl-[2,3′-bipyridine]-6-carboxamide] | 9.92 |

| Compound | pKi |
| --- | --- |
| COc1cc(CNC(=O)c2cc(CNC3=NCCN3)cc(-c3cnccc3C)c2)ccc1Cl [Example 18, N-(4-Chloro-3-methoxybenzyl)-3-(((4,5-dihydro-1H-imidazol-2-yl)amino)methyl)-5-(4-methylpyridin-3-yl)benzamide] | 8.51 |
| COc1cc(OC)cc(C(C)NC(=O)c2cc(Cn3ccnc3C)cc(-c3ccc(F)cc3OC)n2)c1 (stereo not drawn) [Example 158, N-(1-(3,5-dimethoxyphenyl)ethyl)-6-(4-fluoro-2-methoxyphenyl)-4-((2-methyl-1H-imidazol-1-yl)methyl)picolinamide] | 8.10 |
| COc1ccnc(CNC(=O)c2cc(CNC3=NCCN3)cc(-c3cc(C)c(F)cc3C)c2)c1 [Example 51, 5-(((4,5-Dihydro-1H-imidazol-2-yl)amino)methyl)-4′-fluoro-N-((4-methoxypyridin-2-yl)methyl)-2′,5′-dimethyl-[1,1′-biphenyl]-3-carboxamide] | > 10.00 |
| Cc1ccnc(C(NC(=O)c2cc(Cn3ccnc3C)cc(N3CCOCC3)c2)C2CC2)c1 (stereo not drawn) [Example 144, N-(cyclopropyl(4-methylpyridin-2-yl)methyl)-3-((2-methyl-1H-imidazol-1-yl)methyl)-5-morpholinobenzamide] | 8.32 |
| Cc1cc(C)cc(CNC(=O)c2cc(CNC3=NCCN3)cc(-c3ccc(F)nc3C)c2)c1 [Example 6, 3-(((4,5-Dihydro-1H-imidazol-2-yl)amino)methyl)-N-(3,5-dimethylbenzyl)-5-(6-fluoro-2-methylpyridin-3-yl)benzamide] | 9.85 |
| COc1cc(OC)cc(C(C)NC(=O)c2cc(CNC3=NCCN3)cc(-c3ccc(F)cc3C)c2)c1 (racemic) [Example 1, (±)-5-(((4,5-dihydro-1H-imidazol-2-yl)amino)methyl)-N-(1-(3,5-dimethoxyphenyl)ethyl)-4′-fluoro-2′-methyl-[1,1′-biphenyl]-3-carboxamide] | 9.34 |
| COc1cc(OC)cc(C(C)NC(=O)c2cc(CNC3=NCCN3)cc(C(F)(F)F)c2)c1 (stereo not drawn) [Example 33, 3-(((4,5-Dihydro-1H-imidazol-2-yl)amino)methyl)-N-(1-(3,5-dimethoxyphenyl)ethyl)-5-(trifluoromethyl)benzamide] | 8.05 |
| COc1cc(CNC(=O)c2cc(CNC3=NCCN3)cc(-c3cnc(F)c(Cl)c3)c2)cc(OC)c1 [Example 35, 3-(5-Chloro-6-fluoropyridin-3-yl)-5-(((4,5-dihydro-1H-imidazol-2-yl)amino)methyl)-N-(3,5-dimethoxybenzyl)benzamide] | 9.44 |
| Cc1cc(F)ccc1-c1cc(CNC2=NCCC2)cc(C(=O)N[C@@H](C)c2ccc(F)c(C(F)(F)F)c2)n1 [Example 97, (S)-4-(((3,4-dihydro-2H-pyrrol-5-yl)amino)methyl)-6-(4-fluoro-2-methylphenyl)-N-(1-(4-fluoro-3-(trifluoromethyl)phenyl)ethyl)picolinamide] | 8.14 |
| COc1cc(CNC(=O)c2cc(CNC(=N)N)cc(-c3ccnc(C)c3)c2)cc(OC)c1 [Example 99, N-(3,5-Dimethoxybenzyl)-3-(guanidinomethyl)-5-(2-methylpyridin-4-yl)benzamide] | 8.96 |
| Cc1cnc(CNC(=O)c2cc(CNC3=NCCN3)cc(-c3ccc(F)nc3C)c2)cn1 [Example 36, 3-(((4,5-dihydro-1H-imidazol-2-yl)amino)methyl)-5-(6-fluoro-2-methylpyridin-3-yl)-N-((5-methylpyrazin-2-yl)methyl)benzamide] | 8.55 |
| Cc1cc(CNC(=O)c2cc(CNC3=NCCC3)cc(-c3ccc(F)c(CO)c3)c2)ccc1Cl [Example 65, N-(4-chloro-3-methylbenzyl)-5-(((3,4-dihydro-2H-pyrrol-5-yl)amino)methyl)-4′-fluoro-3′-(hydroxymethyl)-[1,1′-biphenyl]-3-carboxamide] | 8.37 |
| Cc1nc(F)ccc1-c1cc(Cn2ccnc2C2CC2)cc(C(=O)NCc2ccc(Cl)c(Cl)c2)c1 [Example 139, 3-((2-Cyclopropyl-1H-imidazol-1-yl)methyl)-N-(3,4-dichlorobenzyl)-5-(6-fluoro-2-methylpyridin-3-yl)benzamide] | 8.80 |
| Cc1cc(-c2cc(CNC3=NCCN3)cc(C(=O)NCc3cc(F)cc(Cl)c3)c2)ccn1 [Example 16, N-(3-chloro-5-fluorobenzyl)-3-(((4,5-dihydro-1H-imidazol-2-yl)amino)methyl)-5-(2-methylpyridin-4-yl)benzamide] | 9.28 |
| COc1ccnc(CNC(=O)c2cc(CNC3=NCCN3)cc(-c3cc(F)cnc3OC)c2)c1 [Example 48, 3-(((4,5-dihydro-1H-imidazol-2-yl)amino)methyl)-5-(5-fluoro-2-methoxypyridin-3-yl)-N-((4-methoxypyridin-2-yl)methyl)benzamide] | 9.20 |

Source: patent publication US10807959B2, “WDR5-MLL1 inhibitors and modulators” (Vanderbilt University, priority 2018, dated 2020)
